The text below walks through data of patent US6613806B1, “Enhancement of the efficacy of benzoylbenzenes” (BASF Corporation, priority 1999, dated 2003).

Common to all, as to type: in vivo
The test system of assay [1] is Blumeria graminis f.sp. tritici. The assay can be described thus: Greenhouse wheat powdery mildew (WPM) 4 day residual disease control. As to conditions: adjuvant alone, NOP 1000 ppm, BB-4 0 ppm. An excerpt:
(§1) Greenhouse Evaluations for Fungicidal Efficacy Disease: Wheat powdery mildew (WPM). Pathogen: Blumeria graminis f.sp. tritici Test Procedure: 1. Wheat seed is planted in plastic pots and maintained in the greenhouse. 2. When the primary leaf (wheat) is fully expanded, formulated test compounds and adjuvants are sprayed with a single nozzle overhead track sprayer at a rate of 200 l/ha. Plants are then allowed to air-dry. 3. Inoculation precedes treatment by 2 days in the case of curative evaluations and follows treatment by 3-4 days in case of residual evaluations. For inoculation, plants are set up on greenhouse benches with bottom watering mats and inoculated by dusting them with conidia from powdery mildew infected plants (stock cultures at an age of 10-14 days). Between inoculation and treatment for curative evaluations and between treatment and inoculation for residual evaluations, plants are maintained in the greenhouse with bottom watering. 4. Disease on the primary leaf (wheat) as percent leaf area with disease symptoms/signs is evaluated about 7 days after inoculation. In the case of wheat, the tips and bases of the leaves are excluded from the evaluation. Percent disease control is then calculated by the following is formula: [formula] Formulation, Reference Compounds and Controls: 1. Formulated compounds are diluted using deionized water. 2. […]

For assay [2] the test system is unchanged. Kind of assay: Greenhouse wheat powdery mildew (WPM) 2 day curative disease control. The following applies: Table I; adjuvant alone, NOP 1000 ppm, BB-4 0 ppm.
Excerpt: as §1

For assay [3] the test system is unchanged. Kind of assay: Greenhouse wheat powdery mildew (WPM) antisporulation test. As to conditions: Table III; adjuvant alone, NOP 1000 ppm, BB-4 0 ppm. Also noted: key: +++: complete (no spore release); ++: strong; +: moderate; none. An excerpt:
Greenhouse Evaluations for Fungicidal Efficacy Disease: Wheat powdery mildew (WPM). Pathogen: Blumeria graminis f.sp. tritici Test Procedure: 1. Wheat seed is planted in plastic pots and maintained in the greenhouse. 2. When the primary leaf (wheat) is fully expanded, formulated test compounds and adjuvants are sprayed with a single nozzle overhead track sprayer at a rate of 200 l/ha. Plants are then allowed to air-dry. 3. Inoculation precedes treatment by 2 days in the case of curative evaluations and follows treatment by 3-4 days in case of residual evaluations. For inoculation, plants are set up on greenhouse benches with bottom watering mats and inoculated by dusting them with conidia from powdery mildew infected plants (stock cultures at an age of 10-14 days). Between inoculation and treatment for curative evaluations and between treatment and inoculation for residual evaluations, plants are maintained in the greenhouse with bottom watering. In antisporulation tests, inoculation preceeds compound application by three days. Scale for Anti-Sporulation Effect: +++=complete (no spore release); ++=strong; +=moderate; o=none.

Each structure is given as a SMILES string.

`CCCCCCCCN1CCCC1=O` [NOP, N-octylpyrrolidone]: the “WPM 4 day Residual Disease Control (%)” value in assay [1] (Table I) turned out to be 9%; in assay [1] (Table III), 0%. Also, the “WPM 2 day Curative Disease Control (%)” value in assay [2] turned out to be 14%. In addition, the “WPM Antisporulation Effect” value in assay [3] is recorded as “o”.
